# Laboratory results published in patent US3987047A, “Tetrahydro-azepinoquinolines” (Boehringer Ingelheim GmbH, priority 1973, dated 1976).
# Counter-ions that a name gives are not always drawn.
# Key:
# Male albino rats = assay: Anorectic test (effect on food intake of fasted rats); assay type: in vivo; conditions: sc; rat; dose which reduced the food intake by 50% over the reference value; 2 hour test period
# Procedure: Male albino rats with starting weights from 200 to 250 gm, kept in so-called makrolon-cages, three to a cage, in an air-conditioned room at a temperature of 22 ± 1° C and about 50 % relative humidity. Between test runs, food (standard feed Altromin R) and drinking water were freely accessible.
# A combination metabolism and motility test cage, described by J. M. van ROSSUM and F. SIMONS (Psychopharmacologia 14, 248, 1969) was used. With the aid of this device it is possible to measure the food intake and motoric activity on the same test animal.
# For effecting and evaluating this test, a modified version of the method of J. SPENGLER and P. WASER [Arch. exp. Path. Pharmcol. 237, 171 (1959)] was used. A test group consisting of 6 ats was used for the test over a 3months' period, once a week, always on the same day of the week and at the same time of day. In preparation for the test, the animals were fasted for 24 hours while they had free access to drinking water. Then, they were put singly into the above-mentioned test cage for 2 hours, where a preweighed quantity of feed (Altromin-R, pulverized) and drinking water was offered ad libitum. Scattered feed was collected carefully, the consumed quantity of feed was determined by weighing the remaining quantity, and the food intake was calculated in terms of grams per 100 gm body weight. the test compound was injected subcutaneously or administered orally by esophageal sound at the beginning of the test period. […] Therefore, each group served as its own control. In the control tests the rats were given at the beginning of the 2 hour test period, 0.1 ml/100 gm water orally or 0.1 ml/100 gm physiological NaCl-solution subcutaneously. Before the test runs, 3 to 4 control tests were made and repeated later at intervals of 5 weeks. The average amount of the food intake which the animals had shown in the control tests was taken as the reference value. The anorectic activity of the test compound was expressed in terms of the percentage reduction of this reference value, and the median anorectic dose (ED50), i.e. the dose which reduced the food intake by 50% over the reference value was graphically calculated.
# [1] = Acute toxicity (LD50 in mice); conditions: in vivo, sc; for selectivity ratio: LD50 mouse s.c. / anorectic ED50 rat s.c., read-out: Therapeutic ratio LD50/ED50; for LD50 at 24 h: mouse, 24 hours observation
# Procedure: Groups of 10 male mice of the NMRI-strain with body weights between 18 and 30 gm. The animals were put individually into cylindrical jars and received by subcutaneous injection under the dorsal skin gradually increasing doses from 0.1 to 0.2 ml/10 gm of body weight of the test compound. The limits for the test dosage range had previously been determined on individual mice. The symptoms of poisoning were recorded. After an observation period of 24 hours the dead animals were counted. The determination of the median lethal dose (LD50) according to G. KARBER [Arch. exper. Path. Pharmak. 162, 480, (1931)] concluded the test.
Structure (SMILES),ED50 (Male albino rats) [mg/kg],selectivity ratio [1],LD50 at 24 h [1] [mg/kg]
"CCN1CCc2nc3ccccc3c(C)c2CC1.Cl.Cl [A, 3-ethyl-1,2,4,5-tetrahydro-11-methyl-3H-azepino[4,5-b]quinoline dihydrochloride]",1.9,95,180
"Cc1c2c(nc3ccccc13)CCCNC2.Cl.Cl [B, 2,3,4,5-tetrahydro-11-methyl-1H-azepino[4,3-b]quinoline dihydrochloride]",1.1,177,195
"Cc1c2c(nc3ccccc13)CCNCC2.Cl.Cl [C, 1,2,4,5-tetrahydro-11-methyl-3H-azepino[4,5-b]quinoline dihydrochloride]",0.2,415,83
"CCCc1c2c(nc3ccccc13)CCNCC2.Cl.Cl [Compound E, 1,2,4,5-tetrahydro-11-propyl-3H-azepino[4,5-b]quinoline dihydrochloride]",0.9,164,148
"CCOC(=O)N1CCc2nc3ccccc3c(C)c2CC1 [D, 1,2,4,5-tetrahydro-11-methyl-3-azepino[4,5-b]quinoline-carboxylic acid ethyl ester]",0.8,1010,810
"Cc1c2c(nc3ccc(Cl)cc13)CCNCC2.Cl.Cl [F, 9-chloro-1,2,4,5-tetrahydro-11-methyl-3H-azepino[4,5-b]quinoline dihydrochloride]",1.5,143,215
"Cc1c2c([n+]([O-])c3ccccc13)CCNCC2 [G, 1,2,4,5-tetrahydro-11-methyl-3H-azepino[4,5-b]quinoline-6-N-oxide hydrochloride]",0.8,394,315
"Cc1c2c(nc3ccccc13)C(O)CNCC2.Cl.Cl (stereo not drawn) [H, 5-hydroxy-1,2,4,5-tetrahydro-11-methyl-3H-azepino[4,5-b]quinoline dihydrochloride]",0.3,420,126
"CCCN1CCc2nc3ccccc3c(C)c2CC1.Cl.Cl [I, 1,2,4,5-tetrahydro-11-methyl-3propyl-3H-azepino[4,5-b]quinoline dihydrochloride]",0.9,,
"Cc1c2c(nc3ccccc13)CCN(C(=O)OC(C)(C)C)CC2.Cl [J, 1,2,4,5-tetrahydro-11-methyl-3azepino[4,5-b]quinoline-carboxylic acid tert.butyl ester hydrochloride]",1.1,,
"Cc1c2c(nc3cccc(Cl)c13)CCNCC2 [K, 10-chloro-1,2,4,5-tetrahydro-11-methyl-3H-azepino[4,5-b]quinoline dihydrochloide]",1.3,,
"CCOC(=O)N1CCc2c(nc3ccccc3c2C)C(O)C1 (stereo not drawn) [L, 5-hydroxy-1,2,4,5-tetrahydro-11-methyl-3-azepino[4,5-b]quinoline-carboxylic acid ethyl ester]",4,,
"Cc1c2c(nc3ccccc13)CCN(CC(C)O)CC2.Cl.Cl (stereo not drawn) [M, 3-(2-hydroxy-propyl)-1,2,4,5-tetrahydro-11-methyl-3H-azepino[4,5-b]quinoline dihydrochloride]",2,,
"COC(=O)N1CCc2nc3ccccc3c(C)c2CC1 [N, 1,2,4,5-tetrahydro-11-methyl-3-azepino[4,5-b]quinoline-carboxylic acid methyl ester]",1.8,,
